As a reminder, the EC50 is the concentration that produces a half-maximal response. Read a high EC50 as a need for much substance.

Where only a bound is given, the exact number is not on record here.

Test [1] addresses Human CB1R (Cannabinoid receptor 1) (Homo sapiens (Human), UniProt P21554). In words: CB-1 in vitro cAMP assay (HTRF), inverse agonism. The class given is cell-based. The settings on record: mean where tested more than once. The text has this:
(§1) CB1 and CB2 receptors are Gi-coupled GPCR. Activation of CB1 and CB2 receptors results in a decrease in cAMP production. An inverse agonist of the CB1 or CB2 receptor results in the opposite effect, an increase of cAMP production. The principle of this assay is based on HTRF® technology (Homogeneous Time-Resolved Fluorescence). The method is a competitive immunoassay between native cAMP produced by cells and the cAMP labeled with the fluorophore d2. The tracer binding is quantified by a Mab anti-cAMP labeled with Eu3+TBP-NHS Cryptate (supplied as part of the assay kit). The specific signal (i.e. energy transfer) is inversely proportional to the concentration of cAMP in the standard or sample.
(§2) Human CB1R (Cannabinoid receptor 1) was stably transfected in HEK-293 cells (DiscoveRx, cat: 93-0200C1). Human CB2R (Cannabinoid receptor 2) was stably transfected in HEK-293 cells (DiscoveRx, cat: 93-0201C1). Cell cultures were maintained in media: DMEM (Invitrogen Cat#12430-054) supplemented with 10% HI FBS (Invitrogen Cat#16140-071), 1% L-glutamine (Invitrogen Cat#25030-081), 0.2 mg/ml Hygromycin B (Invitrogen Cat#10687-010), 600 μg/mL G418 (Invitrogen Cat#10131-035), and 1X Penn/Strep (Invitrogen 15140-122). After cell expansion, aliquots were cryo-stored in media containing 5% DMSO (Pierce Cat#20684).
(§3) One day prior to experiments media was warmed to 37° C. and the cryo-stored cells were thawed in a 37° C. water bath. The cells were then added to media (10× volume) and the mixture was centrifuged at 1000 RPM for 5 min. The supernate was removed and the cells were re-suspended in media. A sample of the cell suspension was evaluated on a Cedex XS automated cell counter (Innovatis Systems) to determine viable cells/ml. Additional media was added to the cells to achieve a final cell density of 4E5 cells/mL. The cells were then plated into 384 well PDL white solid bottom plates (Greiner, Cat#781945) at 20 μL per well using a Multidrop (Thermo Scientific). Cells were removed from Row P (location of cAMP standards). Two columns of cells were plated into a clear bottom 384 well PDL coated plate (Greiner, Cat#781944) to view confluence the day of the assay. The cell plates were lidded and stored for 15 minutes in a hood, then transferred to an incubator (37° C., 5% CO2, 95% humidity) overnight.
(§4) DMSO was added to all wells of 384 well V bottom polystyrene plate (Greiner, Cat#781280) except to columns 1 and 13, rows 0 and P and wells M13-M23 and N13-N23. Test compounds (60 μL, 10 mM) were added to Column 1 and 13 (A1 through N1 and A13 through L13). Test compounds were serially diluted 1/3 by transferring and mixing 20 μl sample with 40 μL DMSO.
(§5) DMSO (40 μL) was added to wells of 384 well V bottom polystyrene plate: O2 through O11, M14 through M23, N14 through N23, and O14 through O23. AM630 (also known as [6-iodo-2-methyl-1-[2-(4-morpholinyl)ethyl]-1H-indol-3-yl](4-methoxyphenyl)-methanone, Cayman Chemical, Cat#10006974) (60 μL, 10 mM) was added to 01; and 1-(2,4-dichlorophenyl)-7-[(4-fluorophenyl)methylene]-4,5,6,7-tetrahydro-N-1-piperidinyl-1H-indazole-3-carboxamide (60 μL, 10 mM) was added to N13. The control was serially diluted 1/3 by transferring and mixing 20 μl sample with 40 μL DMSO. This process resulted 11 doses per control, 10 mM to […].
(§6) Cells plated the day prior to the assay in clear bottom plates were viewed on an inverse microscope to ensure confluency in the range of 60-75%. […]

Test [2] addresses Human CB2R (Cannabinoid receptor 2) (Homo sapiens (Human), UniProt P34972). Briefly: CB-2 in vitro cAMP assay (HTRF), inverse agonism. The class given is cell-based. The settings on record: mean where tested more than once.
Text: as §1, §2, §3, §4, §5, §6
For orientation: Changes in cAMP serve as a functional read-out for many G protein-coupled receptors.

Human CB2R (Cannabinoid receptor 2), sequence (P34972 whole entry): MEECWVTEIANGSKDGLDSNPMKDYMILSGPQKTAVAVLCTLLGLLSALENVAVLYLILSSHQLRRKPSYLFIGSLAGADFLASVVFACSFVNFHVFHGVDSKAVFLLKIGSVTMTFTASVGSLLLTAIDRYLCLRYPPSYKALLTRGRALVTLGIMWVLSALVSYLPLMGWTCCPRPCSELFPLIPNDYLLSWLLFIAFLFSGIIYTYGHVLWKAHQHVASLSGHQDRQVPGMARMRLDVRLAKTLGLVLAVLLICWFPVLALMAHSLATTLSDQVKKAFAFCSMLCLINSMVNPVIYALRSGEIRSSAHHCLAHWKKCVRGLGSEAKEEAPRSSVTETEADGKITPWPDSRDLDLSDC
Human CB1R (Cannabinoid receptor 1), sequence (P21554 whole entry): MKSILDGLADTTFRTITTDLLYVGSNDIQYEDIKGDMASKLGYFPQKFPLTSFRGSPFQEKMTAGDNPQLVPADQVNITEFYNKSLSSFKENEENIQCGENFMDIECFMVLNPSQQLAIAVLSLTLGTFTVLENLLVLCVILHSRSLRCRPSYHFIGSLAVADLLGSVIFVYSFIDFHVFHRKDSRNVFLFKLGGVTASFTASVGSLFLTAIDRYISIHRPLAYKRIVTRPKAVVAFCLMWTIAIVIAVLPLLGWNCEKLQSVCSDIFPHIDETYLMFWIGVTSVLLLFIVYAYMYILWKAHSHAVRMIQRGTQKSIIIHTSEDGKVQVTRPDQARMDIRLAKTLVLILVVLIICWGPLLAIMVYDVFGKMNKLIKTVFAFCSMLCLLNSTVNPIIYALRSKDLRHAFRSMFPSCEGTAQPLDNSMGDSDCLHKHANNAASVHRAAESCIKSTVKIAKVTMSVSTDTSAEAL

For `O=c1cc(/C=C/c2ccc(Cl)cc2)c2cc(C(c3ccccc3)c3ccc(Cl)cc3)ccc2[nH]1` (stereo not shown) [Compound 34, 4-[(E)-2-(4-Chlorophenyl)ethenyl]-6-[(4-chlorophenyl)(phenyl)methyl]quinolin-2(1H)-one], the half-maximal effective concentration (EC50) is 1460 nM in test [1] and over 10000 nM in test [2].
Consider `O=c1cc(N2CCN(S(=O)(=O)C(F)(F)F)CC2)c2cc(C(c3ccc(Cl)cc3)c3nccs3)ccc2[nH]1` (stereo not shown) [Compound 35, 6-[(4-Chlorophenyl)(1,3-thiazol-2-yl)methyl]-4-{4-[(trifluoromethyl)sulfonyl]-piperazin-1-yl}quinolin-2(1H)-one], for which the EC50 is 322 nM in test [1] and over 10000 nM in test [2].
The corresponding values for `CCOC(=O)N1CCC(Nc2cc(=O)[nH]c3ccc(C(c4ccc(Cl)cc4)c4nccs4)cc23)CC1` (stereo not shown) [Compound 37, Ethyl 4-({6-[(4-chlorophenyl)(1,3-thiazol-2-yl)methyl]-2-oxo-1,2-dihydroquinolin-4-yl}amino)piperidine-1-carboxylate] are 19 nM and over 10000 nM.
Take `O=c1cc(/C=C/c2cccc(F)c2)c2cc(C(c3ccc(Cl)cc3)c3nccs3)ccc2[nH]1` (stereo not shown) [Compound 38, (E)-6-((4-chlorophenyl)(thiazol-2-yl)methyl)-4-(3-fluorostyryl)quinolin-2(1H)-one]: the figures for the EC50 in test [1] and in test [2] were 497 nM and over 10000 nM, respectively.
Regarding `O=c1cc(NC2CCNCC2)c2cc(C(c3ccc(Cl)cc3)c3nccs3)ccc2[nH]1` (stereo not shown) [Compound 39, 6-((4-chlorophenyl)(thiazol-2-yl)methyl)-4-(piperidin-4-ylamino)quinolin-2(1H)-one], the values for the 50% effective concentration (EC50) in test [1] and in test [2] were 604 nM and over 10000 nM, respectively.
The corresponding values for `CC(C)S(=O)(=O)N1CCC(Nc2cc(=O)[nH]c3ccc(C(c4ccc(Cl)cc4)c4nccs4)cc23)CC1` (stereo not shown) [Compound 40, 6-[(4-Chlorophenyl)(1,3-thiazol-2-yl)methyl]-4-({1-[(1-methylethyl)sulfonyl]piperidin-4-yl}amino)quinolin-2(1H)-one] are 204 nM and over 10000 nM.
The corresponding values for `CC(C)(C)OC(=O)N1CC[C@H](Nc2cc(=O)[nH]c3ccc(C(c4ccc(Cl)cc4)c4nccs4)cc23)C1` (stereo partly drawn) [Compound 45, tert-Butyl (3S)-3-({6-[(4-chlorophenyl)(1,3-thiazol-2-yl)methyl]-2-oxo-1,2-dihydroquinolin-4-yl}amino)pyrrolidine-1-carboxylate] are 1170 nM and over 10000 nM.
Turning to `CC(C)(C)OC(=O)N1CC[C@@H](Nc2cc(=O)[nH]c3ccc(C(c4ccc(Cl)cc4)c4nccs4)cc23)C1` (stereo partly drawn) [Compound 46, tert-Butyl (3R)-3-({6-[(4-chlorophenyl)(1,3-thiazol-2-yl)methyl]-2-oxo-1,2-dihydroquinolin-4-yl}amino)pyrrolidine-1-carboxylate], the EC50 in test [1] was 657 nM; in test [2], over 10000 nM.
On the same counts, the results for `O=c1cc(N[C@@H]2CCN(S(=O)(=O)C(F)(F)F)C2)c2cc(C(c3ccc(Cl)cc3)c3nccs3)ccc2[nH]1` (stereo partly drawn) [Compound 47, 6-[(4-Chlorophenyl)(1,3-thiazol-2-yl)methyl]-4-({(3R)-1-[(trifluoromethyl)sulfonyl]-pyrrolidin-3-yl}amino)quinolin-2(1H)-one] are 75 nM and 4610 nM.
The corresponding values for `O=c1cc(N[C@H]2CCN(S(=O)(=O)C(F)(F)F)C2)c2cc(C(c3ccc(Cl)cc3)c3nccs3)ccc2[nH]1` (stereo partly drawn) [Compound 48, 6-[(4-Chlorophenyl)(1,3-thiazol-2-yl)methyl]-4-({(3S)-1-[(trifluoromethyl)sulfonyl]-pyrrolidin-3-yl}amino)quinolin-2(1H)-one] are 230 nM and over 3300 nM.
`O=c1cc(NC2CCN(S(=O)(=O)C(F)(F)F)CC2)c2cc(C(O)(c3ccc(F)cc3)c3ccc(Cl)cc3)ccc2[nH]1` (stereo not shown) [Compound 50, 6-[(4-Chlorophenyl)(4-fluorophenyl)hydroxymethyl]-4-({1-[(trifluoromethyl)sulfonyl]-piperidin-4-yl}amino)quinolin-2(1H)-one]: the 50% effective concentration (EC50) in test [1] is 530 nM; in test [2], 9700 nM.
The corresponding values for `COc1ccc(C(O)(c2ccc(Cl)cc2)c2ccc3[nH]c(=O)cc(NC4CCN(S(=O)(=O)C(F)(F)F)CC4)c3c2)cc1` (stereo not shown) [Compound 51, 6-[(4-chlorophenyl)(hydroxy)(4-methoxyphenyl)methyl]-4-[[1-(trifluoromethane)sulfonylpiperidin-4-yl]amino]-1,2-dihydroquinolin-2-one] are 29 nM and 8280 nM.
On to `O=c1cc(NC2CCN(S(=O)(=O)C(F)(F)F)CC2)c2cc(C(c3ccc(F)cc3)c3ccc(Cl)cc3)ccc2[nH]1` (stereo not shown) [Compound 52, 6-[(4-Chlorophenyl)(4-fluorophenyl)methyl]-4-({1-[(trifluoromethyl)sulfonyl]-piperidin-4-yl}amino)quinolin-2(1H)-one], for which the EC50 in test [1] is 23 nM; in test [2] it was 7100 nM.
For the molecule `O=c1cc(NC2CCN(S(=O)(=O)C(F)(F)F)CC2)c2cc(C(c3ccc(Cl)cc3)c3ccc4c(c3)OCO4)ccc2[nH]1` (stereo not shown) [Compound 55, 6[1,3-Benzodioxo1-5-yl(4-chlorophenyl)methyl]-4-({1-[(trifluoromethyl)sulfonyl]-piperidin-4-yl}amino)quinolin-2(1H)-one], the figures for the EC50 in test [1] and in test [2] were 10 nM and 840 nM, respectively.
The corresponding values for `O=c1cc(NC2CCN(c3ncccn3)CC2)c2cc(C(c3ccc(Cl)cc3)c3ccc(Cl)cc3)ccc2[nH]1` [Compound 57, 6-(bis(4-chlorophenyl)methyl)-4-((1-(pyrimidin-2-yl)piperidin-4-yl)amino)quinolin-2(1H)-one] are 11 nM and 4100 nM.
Consider `O=c1cc(NCc2ccc(C(F)(F)F)cc2)c2cc(C(c3ccc(Cl)cc3)c3ccc(Cl)cc3)ccc2[nH]1` [Compound 58, 6-[Bis(4-chlorophenyl)methyl]-4-{[4-(trifluoromethyl)benzyl]amino}-quinolin-2(1H)-one], for which the EC50 was 45 nM in test [1] and over 10000 nM in test [2].
On the same counts, the results for `O=c1cc(NC2CCN(c3ccccc3)CC2)c2cc(C(c3ccc(Cl)cc3)c3ccc(Cl)cc3)ccc2[nH]1` [Compound 60, 6-[bis(4-chlorophenyl)methyl]-4-[(1-phenylpiperidin-4-yl)amino]quinolin-2-ol] are 6 nM and over 10000 nM.
Regarding `O=c1cc(NC2CCN(S(=O)(=O)C(F)(F)F)CC2)c2cc(C(c3ccc(Cl)cc3)c3ccc(C(F)(F)F)cc3)ccc2[nH]1` (stereo not shown) [Compound 62, 6-{(4-Chlorophenyl)[4-(trifluoromethyl)phenyl]methyl}-4-({1-[(trifluoromethyl)sulfonyl]-piperidin-4-yl}amino)quinolin-2(1H)-one], the EC50 in test [1] is 29 nM; in test [2] it was 3230 nM.
On the same counts, the results for `CS(=O)(=O)N1CCC(Nc2cc(=O)[nH]c3ccc(C(c4ccc(Cl)cc4)c4ccc(Cl)cc4)cc23)CC1` [Compound 63, 6-[Bis(4-chlorophenyl)methyl]-4-{[1-(methylsulfonyl)piperidin-4-yl]amino}quinolin-2(1H)-one] are 94 nM and 2660 nM.
Regarding `O=C(c1ccccc1)N1CCC(Nc2cc(=O)[nH]c3ccc(C(c4ccc(Cl)cc4)c4ccc(Cl)cc4)cc23)CC1` [Compound 64, 4-((1-benzoylpiperidin-4-yl)amino)-6-(bis(4-chlorophenyl)methyl)quinolin-2(1H)-one], the EC50 in test [1] was determined as 28 nM; in test [2] it was 4500 nM.
